Measurements as given in US8557300B2 (priority 2005, dated 2013).
Read-outs that look alike come from different tables or passages of the source.

Columns and labels:
mucoid strain FRD1 = settings: FRD1, CF ultrasupernatants pH 6.24, 15 mM NO2^−
Method: CFU are determined (n=3) and plotted as the X±SEM vs. time.
Purulent secretions are harvested from the airways of CF lungs which physicians remove at the time of lung transplantation.

[1] = test system: FRD1 and FRD1/pmucA in CD1 mouse airways
[2] = test system: mucoid FRD1 and nonmucoid FRD1/pmucA in mouse lungs
Method: CD1 mice are infected with FRD1 or FRD1/pmucA.
CD1 mice are infected with ˜10^6 FRD1 or FRD1/pmucA entrapped in agar beads intratracheally. […] On the fifth day, the mice are sacrificed and the viable bacteria from the lung homogenates are enumerated.
The efficacy of HNO2 to kill strain FRD1 in a PA chronic lung infection model is then determined.

FRD1 in mouse lungs = settings: FRD1-infected mice, daily 15 mM NO2^− pH 6.5 for 16 days
[3] = test system: sodAsodB mutant of strain PAO1; settings: aerobic conditions, LB pH 6.5, 15 mM NO2^−
Method: CFU are measured daily and plotted in logarithmic scale. For aerobic samples, strains are grown with vigorous shaking (300 rpm).

[4] = test system: human CF airway epithelium; settings: up to 20 times the dose required to kill mucoid mucA mutant PA, 2 μl apical, pH 6.5, 24 hr
[5] = apical, cultured CF airway epithelia; preliminary studies
Method: (§1) For experiments measuring transepithelial water flux, the primary cultures of airway epithelia are cultured in a specially humidified incubator, to prevent evaporative water loss from the culture surface. […] BD concentration is measured optically and IL-8 concentrations in basolateral media are measured using commercially available antibody pairs (R&D Systems, Minneapolis, Minn.) according to the manufacturer's instructions. […] At various time points, aliquots of apical liquid are aspirated and stored at −20° C.

[6] = test system: primary cultures of CF airway epithelia; settings: 15 mM NO2^−, 24 hr
Method: as §1

[7] = test system: CF airway epithelial cultures; settings: 15 mM NO2^−, 24 hr
Method: as §1

mucoid FRD1 [8] = test system: mucoid FRD1
Method: (§2) The PA strains used in this study include laboratory strains PAO1 (5), CF isolate FRD1 (6), other sputum isolates from CF patients, and sixteen mucoid isolates. Complementation of the mucA mutant allele of strain FRD1 is achieved by transformation with ptacmucA. Aerobic starter cultures are grown in L-broth (10 g tryptone, 5 g NaCl and 5 g yeast extract, per liter) at 37° C. […] To support anaerobic respiration, KNO3 and/or NaNO2 are added to the medium. The pH of the medium is adjusted with 100 mM sodium phosphate (for pH 6.5) or 100 mM sodium acetate (for pH 5.5). To enumerate viable cells in cultures, colony forming units (CFU) are determined.

[9] = test system: PA strains isolated from 5 different young CF patients; settings: 15 mM NO2^−
Method: as §2

[10] = test system: nonmucoid PAO1, mucoid FRD1, nonmucoid FRD1/pmucA; settings: pH 6.5, anaerobic
Method: The colony forming units (CFU) are enumerated each day and plotted.
Based upon the slightly acidic pH measurements of segmental and subsegmental bronchi from CF transplant patients, discussed above, well-characterized P. aeruginosa strains are grown at pH 6.5 under strict anaerobic conditions.
as §2

FRD1 and FRD1/pmucA [11] = test system: FRD1 and FRD1/pmucA
Method: The FRD1 and FRD1/pmucA are seeded on LB agar and buffered at the indicated pH.
Plates are incubated for 2 days under anaerobic conditions.

[12] = test system: mucoid FRD1 and nonmucoid FRD1/pmucA; settings: pH 6.5/15 mM NO2^− versus pH 5.5/[…] NO2^−
[13] = test system: PA mucA, mucB, mucD, algW, algD, algT(U) mutant strains and clinical isolates
Method: Other than mucA, the aforementioned genes are the only reported loci that, when inactivated, allow for mucoid conversion in PA (25-27).
as §2

[14] = test system: mucoid CF clinical isolates of PA
Method: (§3) The CFU in the inoculum versus that after a 4 day anaerobic incubation are determined.
as §2

nor CB mutant of FRD1 = settings: pH 6.5
[15] = test system: PA sputum isolates CF-1 to CF-5; settings: CF-1 to CF-4, 15 mM NO2^−, pH 6.5, anaerobic, 1 day
From the text: The effect of HNO2 on the killing of sputum isolates from CF patients is also monitored.

[16] = test system: mucoid FRD1 and nonmucoid FRD1/pmucA; settings: 15 mM NO2^−, pH 6.5, anaerobic, 5 days
Method: The black bars indicate non-mucoid FRD1/pmucA and the gray bars indicate mucoid FRD1.
as §2

Staphylococcus aureus = settings: slightly acidified
From the text: The current last resort for treatment against these antibiotic resistant strains is with vancomycin.

[17] = test system: anaerobic biofilms of FRD1 and FRD1/pmucA
Method: For the confocal laser microscopic analysis of anaerobic FRD1 biofilms, live cells are stained with syto-9, and dead cells are stained with propidium iodide.
An 8-chambered coverslip system (Lab-Tek Inc., Campbell, Calif.) is used for biofilm architecture and viability experiments. […] Bacterial viability staining and image acquisition are accomplished as described previously by Sparkman et al.
Anaerobic biofilms of strains FRD1 and FRD1/pmucA are grown for 1 day in media containing NO3^−, which supports anaerobic respiration.

[18] = test system: CF airway epithelial cultures
Method: Transepithelial short circuit current (Isc in μA/Cm^2) is measured to monitor any change in bioelectric properties.
A primary culture of human airway epithelial cells is performed. […] LDH is measured using a commercially available spectrophotometric assay kit (Biovision Research Products, Mountain View, Calif.) according to the manufacturer's instructions. Then, the bioelectric properties of cultured airway epithelial cells are analyzed.

FRD1 and FRD1/pmucA [19] = experiment: NO gas exposure of bacterial suspension (FIG. 10); format: cell-based, Pseudomonas aeruginosa; settings: 380 nM solution concentration of NO, LB pH 6.5, 24 hr anaerobic
Method: A NO gas at 333 ppm is balanced with pure argon and continuously bubbled for 24 hr anaerobically.
Nitric oxide (NO) gas (200 ppm, 0.4 μM) balanced with Ar is anaerobically delivered to a water-jacketed chamber in which ˜10^8 bacteria/ml are suspended. […] Gas flow is constantly maintained at 3 ml/min. Pure Ar gas is used as a control.

[20] = test system: mucoid CF clinical isolates of PA; format: cell-based, Pseudomonas aeruginosa; settings: isolates marked by black arrows in FIG. 6
Method: as §3

mucoid FRD1 [21] = experiment: Protection of mucoid FRD1 from acidified NO2^− by NO scavengers (FIG. 9); format: cell-based, Pseudomonas aeruginosa; settings: millimolar concentrations (5 mM); LB pH 6.5, 15 mM NO2^−
From the text: Line 3 is the FRD1 control bacteria alone.

Q: Which results are given for `O=NO` [HNO2, nitrous acid]?
A: speed of killing compared with L-broth (mucoid strain FRD1): killed faster; competitive index ([1]; complemented strain FRD1/pmucA, 6 days): ~1.0; competitive index ([1]; {}): ~0.2; decrease of mucoid FRD1 in lung ([2]; pH 5.5): > 3 logs; decrease of mucoid FRD1 in lung ([2]; pH 6.5, 15 mM NO2^− intranasal): > 2 logs; decrease of nonmucoid FRD1/pmucA in lung ([2]; pH 6.5 and pH 5.5): but not nonmucoid FRD1/pmucA, are decreased; bacteria in lung after long-term treatment (FRD1 in mouse lungs): no bacteria detected; sensitivity of sodAsodB mutant [3]: not sensitive; HNO2 concentration (pH 6.5/15 mM NO2^− and pH 5.5/[…] NO2^−): ~10 µM; HNO2 concentration (pH 6.5 and 15 mM NO2^−): 10.62 µM

Q: For `O=NO` [NO2^−, nitrite], which “cytotoxicity by lactate dehydrogenase release” value [4] is on record?
A: no cytotoxicity

Q: What about the “half-life of NO2^− on CF airway surfaces” value [5] of the same compound?
A: ~5 h

Q: And the “immune response as release of IL-8” value [6]?
A: does not cause activation of an immune response

Q: And the “transepithelial water flux (Jv)” value [7]?
A: does not alter transepithelial water flux

Q: And the LD50 (mucoid FRD1 [8]; mucoid FRD1, pH 6.5, 24 hr anaerobic)?
A: ~3 mM

Q: And the bacteria killed (mucoid FRD1 [8]; pH 6.5)?
A: Ninety to ninety-five

Q: And the “killing on long-term exposure” value (mucoid FRD1 [8]; pH 6.5)?
A: all organisms are killed

Q: And the “killing of mucoid variants of patients A, B, C and D” value [9]?
A: 1.9-3.1 logs

Q: What about the “viability of nonmucoid strains PAO1 and FRD1/pmucA” value ([10]; 15 mM NO2^−, 4 day incubation) of the same compound?
A: remained viable

Q: And the rate of killing ([10]; mucoid FRD1, 15 mM NO2^−)?
A: 90 % per day

Q: What about the “in vitro sensitivity of organisms recovered from mouse airways after exposure” value ([2]; mouse, in vivo) of the same compound?
A: still sensitive

Q: What about the “killing versus pH” value (FRD1 and FRD1/pmucA [11]; FRD1, filter disc 10 μl of 1 M NO2^−, anaerobic 48 hours) of the same compound?
A: more effectively at lower pH

Q: And the “killing versus pH” value (FRD1 and FRD1/pmucA [11]; FRD1/pmucA, pH values between 6.0 and 7.5)?
A: little or no killing

Q: And the “killing of mucoid bacteria at identical HNO2 concentrations” value [12]?
A: equal killing

Q: And the “LD50 for sensitive strains compared with FRD1” value [13]?
A: almost identical to that for FRD1

Q: And the “sensitivity of FRD1 derived nonmucoid mutants ΔalgD and ΔalgT(U)” value [13]?
A: equally sensitive

Q: What about the “sensitivity of PDO300 (PAO1 mucA22)” value [13] of the same compound?
A: sensitive

Q: What about the “sensitivity of mucB, mucD and algW mutants of PAO1” value [13] of the same compound?
A: not sensitive

Q: What about the “mucA mutant mucoid isolates showing increased susceptibility” value ([14]; 15 mM NO2^−, pH 6.5, anaerobic) of the same compound?
A: 78 out of 82

Q: And the “number of mucoid isolates with wild-type mucA allele resistant, out of 12” value ([14]; acidified NO2^−)?
A: 8

Q: What about the “sensitivity of 4 antibiotic-resistant strains” value ([14]; anaerobic treatment with acidified NO2^−) of the same compound?
A: still sensitive

Q: What about the “share of isolates killed by more than 2 logs” value ([14]; mucA mutant mucoid isolates, 15 mM NO2^−, pH 6.5, anaerobic) of the same compound?
A: 74%

Q: And the “sensitivity of norCB mutant relative to FRD1” value (nor CB mutant of FRD1)?
A: ~10 fold

Q: What about the “viability of mucoid mucA mutant sputum isolates” value [15] of the same compound?
A: a sharp decrease in viability

Q: What about the “viability of nonmucoid FRD1/pmucA after mixed incubation” value [16] of the same compound?
A: maintains viability

Q: And the “CFU of mucoid FRD1 after mixed incubation” value ([16]; three bacterial ratios)?
A: < 10^3 CFU/ml

Q: And the “susceptibility of Staphylococcus aureus incl. MRSA” value (Staphylococcus aureus)?
A: exhibited susceptibility

Q: What about the biofilm response ([17]; FRD1/pmucA biofilm, acidified NO2^−) of the same compound?
A: resistance to acidified NO2^− is clearly evident

Q: What about the “death of biofilm organisms” value ([17]; FRD1 biofilm, 15 mM NO2^−, pH 6.5, 2 days) of the same compound?
A: nearly complete death of biofilm organisms

Q: What about the “biofilm structure and cell viability relative to control” value ([17]; FRD1 biofilm, 15 mM NO2^−, pH 7.5, 2 days) of the same compound?
A: no difference in biofilm structure and cell viability

Q: What about the “amiloride-sensitive Isc” value ([18]; 15 mM NO2^− treated (control 15.4±1.4, p=0.92)) of the same compound?
A: 15.7±1.7 μA/cm^2

Q: What about the “UTP-activated Isc” value ([18]; 15 mM NO2^− treated (control 17.7±3.0, p=0.92)) of the same compound?
A: 18.1±3.3 μA/cm^2

Q: What about the “basal transepithelial short circuit current (Isc)” value ([18]; NO2^− at varying concentrations) of the same compound?
A: not affected

Q: With `O=[N+]([O-])O` [NO3^−, nitrate, reference compound] as the compound, how does the “viability patterns of FRD1, PAO1 and FRD1/pmucA” value ([10]; 15 mM NO3^−) read?
A: no difference in viability patterns is observed

Q: With `[N]=O` [NO, nitric oxide] as the compound, how does the “killing of FRD1 by NO/Ar gas mixture” value (FRD1 and FRD1/pmucA [19]) read?
A: is killed

Q: With `NCC[C@H](O)C(=O)N[C@@H]1C[C@H](N)[C@@H](O[C@H]2O[C@H](CN)[C@@H](O)[C@H](O)[C@H]2O)[C@H](O)[C@H]1O[C@H]1O[C@H](CO)[C@@H](O)[C@H](N)[C@H]1O` [amikacin] as the compound, how does the “resistance of 4 clinical isolates” value [20] read?
A: highly resistant

Q: Which “protection of FRD1 from killing by acidified NO2^−” value (mucoid FRD1 [21]) does the source give for `CC1(C)N([O])C(c2ccc(C(=O)O)cc2)=[N+]([O-])C1(C)C` [carboxy-PTIO] here?
A: strong protective effect

Q: With `CC(C)(O/N=C(\C(=O)N[C@@H]1C(=O)N2C(C(=O)[O-])=C(C[n+]3ccccc3)CS[C@H]12)c1csc(N)n1)C(=O)O` [ceftazidime] as the compound, how does the “resistance of 4 clinical isolates” value [20] read?
A: highly resistant

Q: For `NC[C@H]1O[C@H](O[C@H]2[C@H](O)[C@@H](O[C@H]3O[C@H](CO)[C@@H](O)[C@H](N)[C@H]3O)[C@H](N)C[C@@H]2N)[C@H](N)C[C@@H]1O` [tobramycin], which “resistance of 4 clinical isolates” value [20] is on record?
A: highly resistant

Q: Which “resistance of 4 clinical isolates” value [20] does the source give for gentamycin here?
A: highly resistant
